Reference: US11299512B2 (priority 2016, dated 2022)
Where two headings read alike, the source gives them in different places.

System: THP1 luciferase reporter cells
Assay: cells
Format: cell-based
Settings: Homo sapiens, THP-1, 16 h
[1] = read-out: THP1-ISG-Luc with PFO, EC50
[2] = read-out: THP-ISG-Luc without PFO, EC50

Row | Structure (SMILES) | EC50 [1] | EC50 [2]
1 | BP1(=O)OC[C@H]2O[C@@H](n3cnc4c(=O)[nH]c(N)nc43)C(OP(=O)(O)OC[C@H]3O[C@@H](n4cnc5c(N)ncnc54)C(O)C3O1)C2O (stereo in doubt) [EA10] | < 100 nM | < 30000 nM
2 | BP1(=O)OC[C@H]2O[C@@H](n3cnc4c(=O)[nH]c(N)nc43)[C@@H](OP(B)(=O)OC[C@H]3O[C@@H](n4cnc5c(N)ncnc54)[C@@H](O)C3O1)C2O (stereo in doubt) [EA11] | < 100 nM | < 30000 nM
3 | Nc1nc2c(ccn2[C@@H]2O[C@@H]3COP(=O)(O)OC4C(O)[C@H](n5cnc6c(N)ncnc65)O[C@@H]4COP(=O)(S)OC2C3O)c(=O)[nH]1 (stereo in doubt) [EB3] | < 100 nM | < 30000 nM
4 | Nc1nc2c(ccn2[C@@H]2O[C@@H]3COP(=O)(O)OC4C(O)[C@H](n5cnc6c(NCCO)ncnc65)O[C@@H]4COP(=O)(S)OC2C3O)c(=O)[nH]1 (stereo in doubt) [EB5] | 100 to 1000 nM | > 100000 nM
5 | Nc1nc2c(ncn2[C@@H]2O[C@@H]3COP(=O)(O)OC4C(O)[C@H](n5ccc6c(N)ncnc65)O[C@@H]4COP(=O)(O)OC2C3OCC(F)(F)F)c(=O)[nH]1 (stereo in doubt) [EC3] | 100 to 1000 nM | < 30000 nM
6 | COC1C2OP(=O)(O)OC[C@H]3O[C@@H](n4cnc5c(=O)[nH]c(N)nc54)C(OP(=O)(O)OC[C@H]2O[C@H]1n1cnc2c(N)ncnc21)C3OCC(F)(F)F (stereo in doubt) [EC10] | > 1000 nM | > 100000 nM
7 | Nc1nc2c(ncn2[C@@H]2O[C@@H]3COP(=O)(O)OC4C(O)[C@H](n5cnc6c(N)ncnc65)O[C@@H]4COP(=O)(O)OC2C3CCO)c(=O)[nH]1 (stereo in doubt) [EC12] | < 100 nM | < 30000 nM
8 | Nc1nc2c(ncn2[C@@H]2O[C@@H]3COP(=O)(O)OC4C(O)[C@@H](COP(=O)(O)OC2C3OCC(F)(F)F)O[C@H]4n2cnc3c(N)ncnc32)c(=O)[nH]1 (stereo in doubt) [EC13] | 100 to 1000 nM | < 30000 nM
9 | Nc1nc2c(ncn2[C@@H]2O[C@@H]3COP(=O)(O)OC4C[C@H](n5ccc6ccccc65)O[C@@H]4COP(=O)(O)OC2C3OCC(F)(F)F)c(=O)[nH]1 (stereo in doubt) [EC16] | > 1000 nM | > 100000 nM
10 | Nc1nc2c(ncn2[C@@H]2O[C@@H]3COP(=O)(O)OC4C[C@H](c5cccc6ccccc56)O[C@@H]4COP(=O)(O)OC2C3OCC(F)(F)F)c(=O)[nH]1 (stereo in doubt) [EC19] | > 1000 nM | > 100000 nM
11 | Nc1nc2c(ncn2[C@@H]2O[C@@H]3COP(=O)(O)OC4C(O)[C@H](n5cnc6c(N)ncnc65)O[C@@H]4CNc4c(c(=O)c4=O)NC2C3O)c(=O)[nH]1 (stereo in doubt) [EC22] | > 1000 nM | > 100000 nM
12 | CCCC1C2OP(=O)(O)OC[C@H]3O[C@@H](n4cnc5c(N)ncnc54)C(O)C3OP(=O)(O)OC[C@H]1O[C@H]2n1cnc2c(=O)[nH]c(N)nc21 (stereo in doubt) [EC24] | < 100 nM | < 30000 nM
13 | Nc1nc2c(ncn2[C@@H]2O[C@@H]3COP(=O)(O)OC4C(O)[C@H](n5cnc6c5ncn5ccnc65)O[C@@H]4COP(=O)(O)OC2C3OCC(F)(F)F)c(=O)[nH]1 (stereo in doubt) [EC26] | 100 to 1000 nM | > 100000 nM
14 | Nc1nc2c(ncn2[C@@H]2O[C@@H]3COP(=O)(O)OC4C(O)[C@H](n5cnc6c(N)ncnc65)O[C@@H]4COP(=O)(O)OC2C3O)c(=O)[nH]1 (stereo in doubt) [Example E1] | < 100 nM | < 30000 nM
15 | COC1C2OP(=O)(O)OC[C@H]3O[C@@H](n4cnc5c(N)ncnc54)C(O)C3OP(=O)(O)OC[C@H]1O[C@H]2n1cnc2c(=O)[nH]c(N)nc21 (stereo in doubt) [Example E3] | < 100 nM | < 30000 nM
16 | C#CCOc1nc(N)nc2c1ncn2[C@@H]1O[C@@H]2COP(=O)(O)OC3C(O)[C@H](n4cnc5c(N)ncnc54)O[C@@H]3COP(=O)(O)OC1C2O (stereo in doubt) [Example E4] | < 100 nM | < 30000 nM
